Legend:
HIF-1α = details: for HIF-1α stabilization: higher concentrations causing increased stabilization
Source text: HIF-1α is stabilized in Mrs2−/− mice. To examine the intrinsic role of Mrs2, Mrs2^−/− mice were challenged to LPS-induced inflammatory response. It was noticed that there was a barely detectable HIF-1α stabilization in control but a significant HIF-1α protein accumulation following LPS stimulation in Mrs2^−/− hepatocytes (Daw et al., 2020). […] It was envisioned that loss of Mrs2 in hepatocyte mitochondria might control metabolite fluxes that regulates HIF-1α stability under normoxic conditions. HIF-1α is the most commonly studied transcription factor that responds to oxygen tension and its stabilization controls numerous metabolic cascades, including glycolysis and oxidative phosphorylation (Kaelin and Ratcliffe, 2008; Lum et al., 2007; Semenza, 2013). A targeted metabolite screen was conducted to identify whether these metabolites potentially altered in Mrs2^−/− control HIF-1α stabilization. WT hepatocytes were treated with the PHD inhibitor FG-4952 for 6 hours in the presence or absence of metabolites (Buckley et al., 2012). […] Next it was explored whether citric acid mediated HIF-1α destabilization is a hydroxylation dependent mechanism by reconstitution of hydroxylation-dead mutant HIF-1α in COS-7 cells (Yan et al., 2007). […] Next tested the potency of citric acid and sodium citrate was tested. Hepatocytes isolated from WT or Mrs2^−/− mice were treated for 6 hours. HIF-1α stabilization was less affected by di- or tri-sodium citrate than by citric acid (FIG. 9G). […] The citric acid-mediated HIF-1α destabilization was intact in multiple chemical modalities (FIG. 9H) and the intracellular chelation of Mg^2+ ions suppressed FG-4952-induced HIF-1α stabilization (FIG. 9I). […] Furthermore, COS-7 cells were more sensitive to the HIF-1α stabilizing effect compared to hepatocytes. […] Next HIF-1α abundance was tested in liver tissues harvested from dietary cohorts. HIF-1α protein expression/stabilization was prominent in both Mrs2^−/− and Mrs2^−/− WD, whereas HIF-1α protein was nearly completely absent in WT WD (FIG. 9M). This supports the elevation of HIF-1α protein level as a key mechanism driving transcription changes in Mrs2^−/− WD livers.
Immunoblotting. Crushed tissues were homogenized in lysis buffer (ThermoFisher) on ice for one minute (20-30 strokes) using an automatic Dounce homogenizer set to 2000 RPM. Whole cell lysate was prepared in lysis buffer (Abcam) using 3 sets of 3-second sonication (power level 3) intervals on ice. Protein concentration was estimated using Pierce BCA assay kit and samples were prepared and heated for 90° C. for 5 minutes. Equal amounts of protein were loaded and separated on 4%-12% Bis-Tris polyacrylamide gel (Thermo Fisher Scientific), transferred to a PVDF membrane, blocked for 1-2 h using 5% fat free skim milk, washed and finally, probed with corresponding antibodies as specified below. Antibodies were from Cell Signaling Technology (HIF-1α and Hydroxy HIF-1α dilution 1:3000, MCU dilution 1.5000, MICU1 dilution 1:3000), Abcam Abcam (CPT-1a, CPT-2, OXPHOS cocktail dilution 1:3000), ZYMED Laboratories (β-actin; dilution 1:1,000), and Amersham (secondary antibodies conjugated with peroxidase). Development was done using X-ray film using a series of timed exposures and Image J was used for densitometric analysis on scanned film images.

[1] = tested on: mitochondrial Mg^2+ uptake; assay: Metabolite screen for ER Mg2+ depletion and mitochondrial Mg2+ uptake, Mag-Green confocal imaging of hepatocytes; assay type: cell-based, murine
Source text: Targeted Metabolite Screen Identifies Lactate as activator agonist for Mitochondrial Mg^2+ Uptake. To search for agonists that promote mitochondrial Mg^2+ ([Mg^2+]m) uptake, the inventors developed a cell-based confocal fluorescence imaging. As an initial feature, the inventors tested whether GPCR agonist-induced second messengers promote Mg^2+ dynamics. To discriminate intracellular Ca^2+ and Mg^2+ dynamics, MEFs were loaded with cell permeant Ca^2+ indicator, Fluo-4-AM or Mg^2+ indicator Mag green-AM followed by GPCR agonist, thrombin stimulation. […] It is established that intracellular Ca^2+ dynamics could be monitored using a wide range of fluorescent dyes or genetically encoded Ca^2+ indicators. Conversely, Mg^2+ sensitive indicators are very limited due to either lack of agonists or robust dynamic nature. To identify the agonist, primary murine hepatocytes were loaded with [Mg^2+]i indicator, cell permeant Mag Green-AM (5 μM). Subsequently, dye loaded hepatocytes were stimulated with major cellular metabolites and mitochondrial oxidative phosphorylation (OXPHOS) inhibitors following baseline recording. […] As depicted in FIG. 1B, the reciprocal mobilization of free Mg^2+ ion from ER to mitochondria was observed upon stimulation of Lactate (5 mM) in a temporal fashion. To confirm that lactate-induced Mag-Green signals are indeed measured from mitochondrial compartment, hepatocytes were simultaneously loaded with mitochondrial marker Mito-tracker Red and Mag-Green-AM (FIG. 1C-1F). […] Conversely, sodium lactate or lactic acid (5 mM) triggered a rapid depletion of ER signal with concomitant accumulation nucleus followed by mitochondrial elevation of Mag Green signal with a lag time of ˜25 s (FIG. 1D). Besides nucleotides such as ATP, citrate is also known to chelate free Mg^2+. Since ATP is cell impermeable, citrate (5 mM) was applied and intracellular Mg^2+ mobilization monitored. […] To exclude the possibility that acidic pH of medium by lactate could alter membrane polarization, the pH was normalized. Additionally, the inventors also tested whether both sodium lactate as well as lactic acid induce mitochondrial Mg^2+ uptake. Consistent with sodium form of lactate, lactic acid also elicited a rapid ER depletion followed by mitochondrial Mg^2+ influx indicating a lactate role as an activator of Mg^2+ dynamics. Thus, natural metabolite, lactate rapidly mobilizes ER Mg^2+ which led to cytosolic elevation resulting in activation mitochondrial Mg^2+ uptake.
Mitochondrial Mg^2+ Transporter is Temperature Sensitive. […] To assess optimal concentration of lactate required to trigger Mg^2+ depletion from ER compartment and mitochondrial Mg^2+ uptake, both ER-depletion and mitochondrial Mg^2+ uptake was measured in hepatocytes at 37° C. […] However, a consistent stronger response was perceived at 5 mM lactate stimulation (FIG. 2A and 2B). During these studies depletion of ER Mg^2+ was noticed at 37° C. and room temperature (25° C.) upon 5 mM lactate stimulation (FIG. 2C). Remarkably, mitochondrial Mg^2+ uptake was higher at 37° C. and had no effect at 25° C. showing a temperature sensitivity (FIG. 2D). Based on this experimental evidence, a wide range of temperatures were tested. To determine the temperature responsiveness, primary hepatocytes were kept between 25° C.-40° C. and cells were stimulated with 5 mM lactate. […] (FIG. 2F). Intriguingly, the lactate response was not seen at 25° C. or 30° C. (FIG. 2F).
ER-Dependent Efflux of Free Mg^2+ Promotes Mitochondrial Mg^2+ Uptake. […] Since extracellular delivery of lactate rapidly induces ER-depletion and subsequent mitochondrial uptake, it was asked whether rapid influx of lactate regulates this mechanism. Most mammalian cells utilize monocarboxylate transporters (MCT1-4) for plasma membrane lactate entry. To test this, primary hepatocytes were treated with MCT1 or MCT1/2 inhibitors for 60 minutes. […]

MEFs = assay: Intracellular Ca2+ and Mg2+ dynamics in MEFs (Fluo-4-AM, Mag green-AM); assay type: cell-based
Source text: Targeted Metabolite Screen Identifies Lactate as activator agonist for Mitochondrial Mg^2+ Uptake. To search for agonists that promote mitochondrial Mg^2+ ([Mg^2+]m) uptake, the inventors developed a cell-based confocal fluorescence imaging. As an initial feature, the inventors tested whether GPCR agonist-induced second messengers promote Mg^2+ dynamics. To discriminate intracellular Ca^2+ and Mg^2+ dynamics, MEFs were loaded with cell permeant Ca^2+ indicator, Fluo-4-AM or Mg^2+ indicator Mag green-AM followed by GPCR agonist, thrombin stimulation. […] It is established that intracellular Ca^2+ dynamics could be monitored using a wide range of fluorescent dyes or genetically encoded Ca^2+ indicators. Conversely, Mg^2+ sensitive indicators are very limited due to either lack of agonists or robust dynamic nature. To identify the agonist, primary murine hepatocytes were loaded with [Mg^2+]i indicator, cell permeant Mag Green-AM (5 μM). […] To confirm that lactate-induced Mag-Green signals are indeed measured from mitochondrial compartment, hepatocytes were simultaneously loaded with mitochondrial marker Mito-tracker Red and Mag-Green-AM (FIG. 1C-1F). […] Since ATP is cell impermeable, citrate (5 mM) was applied and intracellular Mg^2+ mobilization monitored. […]

human MRS2 = biological target: T1, human MRS2 (Homo sapiens, UniProt Q9HD23); assay: Dynamic light scattering of purified full-length MRS2 assembly; assay type: binding; details: 5 mM
T1 construct: 6xHis (N, cleaved yes); made in house; host or cells: BL21 (DE3) codon+ Escherichia coli, pET-28a
T1 sequence (Q9HD23 58-443): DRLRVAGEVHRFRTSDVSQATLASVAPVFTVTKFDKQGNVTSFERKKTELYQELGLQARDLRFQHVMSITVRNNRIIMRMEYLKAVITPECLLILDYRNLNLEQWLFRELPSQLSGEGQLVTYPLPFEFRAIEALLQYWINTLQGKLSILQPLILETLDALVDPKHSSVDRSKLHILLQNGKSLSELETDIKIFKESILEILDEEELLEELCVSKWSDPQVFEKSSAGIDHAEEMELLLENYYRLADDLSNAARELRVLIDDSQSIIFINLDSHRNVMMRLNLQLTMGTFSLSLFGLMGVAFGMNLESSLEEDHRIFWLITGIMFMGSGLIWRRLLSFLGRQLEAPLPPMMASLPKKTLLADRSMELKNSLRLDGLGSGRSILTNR
Experimental: Next, CPACC was assessed to determine if it directly affects the assembly of purified human MRS2 using dynamic light scattering (DLS). DLS has been used to determine whether the complex stability of proteins/channels is altered by molecular chaperones or drugs (Kitamura et al., 2006). Because of the high sensitivity of DLS to changes in complex sizes, full-length Mrs2 assembly was evaluated in the presence Ca^2+ (5 mM), Mg^2+ (5 mM), Co^2+ (5 mM) or the Mrs2 blocker CPACC (0.5 mM) (FIG. 10K, FIG. 10L, FIG. 10M, FIG. 10N, FIG. 10O). […] A concentration-response assessment confirmed robust decreases in hydrodynamic radii at all CPACC concentrations tested and as low as 10 μM (FIG. 10O).
MRS2 cloning, expression, and purification. The full length human MRS2 (NCBI accession NP_065713.1), identified as MRS258-443 (i.e. residues 58-443) and excluding the mitochondrial targeting sequence, was cloned into pET-28a using Ndel and Xhol restriction sites. […]
Dynamic light scattering (DIS). […] The sample was equilibrated for 5 min at 20° C. before 10 autocorrelation function acquisitions of 5 s each were recorded and averaged. […] The dependence of hydrodynamic size on CPACC concentration was determined using ≈0.5 mg/mL protein supplemented with 0.01 mM, 0.05 mM, 0.1 mM, 0.5 mM or 0.75 mM CPACC, using a similar experimental setup as described above and cumulants analysis.

Molecule: COC(=O)CNC(=O)C(=O)OC [DMOG, reference compound]
- HIF-1α stabilization (HIF-1α; hepatocytes): promoted HIF-α stabilization

Molecule: N#C/C(=C\c1cn(-c2ccccc2)c2ccccc12)C(=O)O [UK5099, reference compound]
- effect of blockade of mitochondrial pyruvate entry on HIF-1α stabilization (HIF-1α; hepatocytes): did not prevent HIF-1α stabilization

Molecule: CC(O)C(=O)O (centres unmarked) [lactate]
- lactate-induced mitochondrial Mg^2+ uptake ([1]; 5 mM, 25° C. or 30° C.): not seen
- Lactate-induced ER Mg^2+ depletion ([1]; 5 mM, 25° C.-40° C.): seen at all the indicated temperature range
- lactate-induced mitochondrial Mg^2+ uptake ([1]; 5 mM, 34° C. and 40° C.): sub-optimal
- lactate-induced mitochondrial Mg^2+ uptake ([1]; 5 mM, 37° C.): maximal
- concentration that promotes ER depletion and partial uptake of Mg^2+ into mitochondria ([1]; hepatocytes, 37° C.): ≥ 2 mM
- ER Mag-Green signal depletion and mitochondrial Mg^2+ uptake ([1]; metabolite screen, primary murine hepatocytes): rapid and robust depletion of ER Mag-Green signal followed by a subsequent elevation in the mitochondria

Molecule: thrombin
- cytosolic Ca^2+ mobilization (MEFs; Fluo-4-AM): rapidly elicited cytosolic Ca^2+ mobilization
- intracellular Mg^2+ dynamics (MEFs; Mag green-AM): absent

Molecule: Cc1nc(C(=O)NCC(=O)O)c(O)c2ccc(Oc3ccccc3)cc12 [FG-4592, reference compound]
- HIF-1α stabilization (HIF-1α; hepatocytes): promoted HIF-α stabilization

Molecule: CC(O)C(=O)[O-].[Na+] (centres unmarked) [sodium lactate]
- lag time to mitochondrial elevation of Mag Green signal ([1]; 5 mM): ~25 s

Molecule: [Cl-].[Cl-].[Co+2] [Co^2+, reference compound]
- full-length MRS2 complex sizes (DLS) (human MRS2): potently decreased

Molecule: O=C(O)CC(O)(CC(=O)O)C(=O)O [citrate]
- effect on mitochondrial and ER Mg^2+ signals ([1]; 5 mM): partly chelated both mitochondrial and ER Mg^2+ signals

Molecule: [Cl-].[Cl-].[Mg+2] [Mg^2+]
- HIF-1α stabilization at high levels (HIF-1α; 10 mM, normoxia): sufficient to promote low levels of HIF-1α stabilization

Molecule: [Cl][Co][Cl] [CoCl2, cobalt chloride, reference compound]
- HIF-1α stabilization (HIF-1α; hepatocytes): promoted HIF-α stabilization

Molecule: CC(O)C(=O)O (centres unmarked) [lactic acid]
- lag time to mitochondrial elevation of Mag Green signal ([1]; 5 mM): ~25 s

From patent US20240415878A1, “Compositions and Methods for Modulating Mitochondrial Function” (Board of Regents, The University of Texas System, priority 2021, published 2024)
